Laboratory results from the NIST ThermoML archive (doi:10.1016/j.fluid.2015.03.048).
Numbers after ± are expanded uncertainties.

Assay: xn = mol fraction of the nth substance listed
Settings: 303.15 K, 100 kPa, Liquid; for viscosity: Capillary tube (Ostwald / Ubbelohde) method; for excess molar volume: Direct dilatometry; for speed of sound: Frequency=3 MHz, Sing-around technique in a fixed-path interferometer; for mass density: Pycnometric method

Clc1ccc(Cl)c(Cl)c1 [1,2,4-trichlorobenzene] + CC(=O)N(C)C
Settings | excess molar volume [m3/mol] | mass density [kg/m3] | speed of sound [m/s] | viscosity [mPa·s]
x2 = 0.0697 | – | 1407.11 ± 14 | 1289 ± 3 | –
x2 = 0.0921 | 2.1e-08 ± 6e-09 | – | – | 1.608 ± 0.019
x2 = 0.1026 | – | 1390.55 ± 14 | 1299 ± 3 | –
x2 = 0.1341 | 3.1e-08 ± 6e-09 | – | – | 1.578 ± 0.019
x2 = 0.1407 | – | 1371.4 ± 14 | 1308 ± 3 | –
x2 = 0.1758 | – | 1353.78 ± 14 | 1316 ± 3 | –
x2 = 0.1815 | 4.3e-08 ± 6e-09 | – | – | 1.523 ± 0.018
x2 = 0.2103 | – | 1336.46 ± 13 | 1325 ± 3 | –
x2 = 0.2241 | 5.2e-08 ± 6e-09 | – | – | 1.474 ± 0.018
x2 = 0.2601 | – | 1311.41 ± 13 | 1336 ± 3 | –
x2 = 0.265 | 6.1e-08 ± 6e-09 | – | – | 1.445 ± 0.018
x2 = 0.3225 | 7.4e-08 ± 6e-09 | – | – | 1.403 ± 0.017
x2 = 0.3592 | – | 1261.63 ± 13 | 1354 ± 3 | –
x2 = 0.4015 | – | 1240.42 ± 12 | 1365 ± 3 | –
x2 = 0.4257 | – | 1228.27 ± 12 | 1368 ± 3 | –
x2 = 0.4315 | 9.5e-08 ± 6e-09 | – | – | 1.383 ± 0.017
x2 = 0.476 | 9.9e-08 ± 6e-09 | – | – | 1.353 ± 0.017
x2 = 0.4786 | – | 1201.84 ± 12 | 1378 ± 3 | –
x2 = 0.501 | 1e-07 ± 6e-09 | – | – | 1.284 ± 0.016
x2 = 0.5539 | – | 1164.24 ± 12 | 1391 ± 3 | –
x2 = 0.5542 | 9.7e-08 ± 6e-09 | – | – | 1.292 ± 0.016
x2 = 0.6271 | 8.8e-08 ± 6e-09 | – | – | 1.205 ± 0.015
x2 = 0.6383 | – | 1122.13 ± 11 | 1405 ± 3 | –
x2 = 0.705 | 7.3e-08 ± 6e-09 | – | – | 1.197 ± 0.015
x2 = 0.7344 | – | 1074.16 ± 11 | 1419 ± 3 | –
x2 = 0.7519 | – | 1065.39 ± 11 | 1420 ± 3 | –
x2 = 0.7892 | 5.5e-08 ± 6e-09 | – | – | 1.152 ± 0.015
x2 = 0.8041 | 5.2e-08 ± 6e-09 | – | – | 1.096 ± 0.014
x2 = 0.9052 | – | 988.77 ± 9.9 | 1440 ± 3 | –
x2 = 0.9282 | 2.2e-08 ± 6e-09 | – | – | 1.088 ± 0.014

Clc1ccccc1Cl [1,2-dichlorobenzene] + CC(=O)N(C)C
Settings | excess molar volume [m3/mol] | mass density [kg/m3] | speed of sound [m/s] | viscosity [mPa·s]
x2 = 0.0664 | – | 1275.7 ± 13 | 1263 ± 3 | –
x2 = 0.0805 | -3.6e-08 ± 6e-09 | – | – | 1.294 ± 0.016
x2 = 0.1017 | – | 1263.13 ± 13 | 1276 ± 3 | –
x2 = 0.1224 | -5e-08 ± 6e-09 | – | – | 1.29 ± 0.016
x2 = 0.1344 | – | 1251.49 ± 13 | 1284 ± 3 | –
x2 = 0.1605 | -6e-08 ± 6e-09 | – | – | 1.283 ± 0.016
x2 = 0.1841 | – | 1233.77 ± 12 | 1298 ± 3 | –
x2 = 0.2175 | -7.5e-08 ± 6e-09 | – | – | 1.277 ± 0.016
x2 = 0.2229 | – | 1219.92 ± 12 | 1307 ± 3 | –
x2 = 0.2611 | -8.4e-08 ± 6e-09 | – | – | 1.276 ± 0.016
x2 = 0.2821 | – | 1198.76 ± 12 | 1319 ± 3 | –
x2 = 0.3261 | -9.1e-08 ± 6e-09 | – | – | 1.261 ± 0.016
x2 = 0.4095 | – | 1152.99 ± 12 | 1344 ± 3 | –
x2 = 0.4319 | -9.2e-08 ± 6e-09 | – | – | 1.253 ± 0.016
x2 = 0.4585 | – | 1135.37 ± 11 | 1353 ± 3 | –
x2 = 0.4607 | -8.8e-08 ± 6e-09 | – | – | 1.24 ± 0.016
x2 = 0.5105 | -8.1e-08 ± 6e-09 | – | – | 1.232 ± 0.016
x2 = 0.5742 | – | 1093.68 ± 11 | 1377 ± 3 | –
x2 = 0.6242 | -5.5e-08 ± 6e-09 | – | – | 1.225 ± 0.016
x2 = 0.6565 | – | 1064.03 ± 11 | 1393 ± 3 | –
x2 = 0.7019 | -3.4e-08 ± 6e-09 | – | – | 1.218 ± 0.015
x2 = 0.7168 | – | 1042.36 ± 10 | 1402 ± 3 | –
x2 = 0.7571 | -1.8e-08 ± 6e-09 | – | – | 1.211 ± 0.015
x2 = 0.7764 | – | 1020.96 ± 10 | 1413 ± 3 | –
x2 = 0.8105 | -5e-09 ± 6e-09 | – | – | 1.201 ± 0.015
x2 = 0.822 | – | 1004.63 ± 10 | 1419 ± 3 | –
x2 = 0.8505 | 2e-09 ± 6e-09 | – | – | 1.112 ± 0.015
x2 = 0.9177 | – | 970.54 ± 9.7 | 1435 ± 3 | –
x2 = 0.9321 | 7e-09 ± 6e-09 | – | – | 0.908 ± 0.013
